Source: publication PMC4230943, “Mimicking Hypoxia to Treat Anemia: HIF-Stabilizer BAY 85-3934 (Molidustat) Stimulates Erythropoietin Production without Hypertensive Effects” (PLoS ONE, 2014)

Columns and labels:
[1] = tested on: HIF-1α and HIF-2α; assay: Western blot detection of HIF stabilization in HeLa, A549 and Hep3B cells; assay type: cell-based, human; conditions: for induction threshold of detectable HIF: 2 h exposure
Protocol: A549 and HeLa carcinoma cell lines (American Type Culture Collection) were cultured in DMEM/F-12 (Gibco), and Hep3B cells in RPMI medium, both supplemented with antibiotics, L-glutamine and 10% fetal calf serum. A549 cells stably transfected with the HIF-RE2-luc HIF reporter construct (constructed in pGL3, Promega GmbH) were seeded on 384-well plates (Greiner) at a density of 2500 cells/well in a volume of 25 µl complete cell culture medium, and re-incubated for 16–24 h before the test. Test compounds were added at appropriate dilutions in a volume of 10 µl, and cells were re-incubated for 6 h before measurement. Luciferase activity was determined in a luminometer after addition of cell lysis/luciferase buffer. Cell line identities were verified by STR DNA typing (DSMZ GmbH).
For western blot analysis, cell lysates were separated on 4–12% SDS polyacrylamide gradient gels (Invitrogen). Proteins were blotted onto polyvinylidene difluoride (PVDF) membranes (Amersham Biosciences). HIF-1α protein was detected using a HIF-1α specific monoclonal antibody (BD Transduction Laboratories) at a dilution of 1∶250. HIF-2α protein was detected using a HIF-2α specific polyclonal antibody (Novus Biologicals) at a dilution of 1∶1000. Anti-β-actin antibody served as a loading control. […] Novex Sharp Pre-stained Protein Standard (Invitrogen) was used as molecular weight marker.
It was further explored whether inhibition of HIF-PHs would result in the stabilization of HIFs. Exposure of three different human cell lines (HeLa, A549, and Hep3B) to concentrations of BAY 85-3934 up to 10 µM for 2 h led to dose-dependent increases in both HIF-1α and HIF-2α. Within the individual cell lines, there was no difference between the HIF isoforms with regard to the threshold concentration of BAY 85-3934 that was necessary for the induction of detectable amounts of HIF. […] Exposure of HeLa cells to 5 µM BAY 85-3934 for 20 min was sufficient to induce detectable concentrations of HIF-1α (Fig. 1E). After exposure of A549 cells to 20 µM BAY 85-3934 for 120 min, with subsequent withdrawal of the culture medium and replacement with medium containing 100 µM cycloheximide (an inhibitor of protein synthesis), induction of HIF-1α was no longer detectable after 30 min (Fig. 1F). Therefore, it can be ruled out that disappearance of HIF-1α was the result of de novo synthesis of […].

[2] = tested on: male Wistar rats; assay: Time-course of kidney mRNA expression (EPO, HIF target genes) and plasma EPO after a single dose; assay type: in vivo, rat
Protocol: Male Wistar rats (240–340 g in body weight) were housed with five animals per cage for at least 1 week before experimentation. Blood samples from rats were collected under anesthesia (2% isoflurane in air) by puncturing the retro-orbital vein plexus with a glass capillary. In a repeat-dose, 26-day experiment, animals were administered vehicle or BAY 85-3934 at doses of 0.5 mg/kg, 1.25 mg/kg, 2.5 mg/kg, and 5 mg/kg. PCV was determined at baseline and at weekly intervals after centrifugation in a hematocrit capillary tube (Brand) for 10 min at full speed in a Haemofuge centrifuge (Heraeus). The number of reticulocytes in 5 µl blood was counted after staining with thiazol orange (Becton Dickinson) according to the manufacturer’s instructions by FACS analysis on a BD FACSCalibur system (Becton Dickinson). The efficacy of BAY 85-3934 (2.5 mg/kg, once-daily, oral) was also compared with that of rhEPO (25 IU/kg, 50 IU/kg, and 100 IU/kg, twice-weekly, s.c. injection). The time-course of induction of EPO mRNA expression and plasma EPO was determined at baseline and 0.5 h, 1 h, 2 h, 4 h, 6 h, and 8 h after oral administration of a single dose of BAY 85-3934 (5 mg/kg).
EPO was measured in plasma samples taken from rodents using a commercial ELISA kit (R&D Systems), according to the manufacturer’s instructions. Relative plasma EPO levels were given in picograms per milliliter. In cynomolgus monkeys, EPO was measured using a combination anti-human EPO ELISAs (R&D Systems and Roche Diagnostics), with human EPO as a standard. Values were given as units per liter. For determination of plasma prorenin from rats, a commercial ELISA (Oxford Biomedical Research) was used according to the manufacturer’s instructions. Hemoglobin in rodent blood samples was determined on a Cell-Dyn 3700 apparatus (Abbott Diagnostics). BAY 85-3934 plasma concentrations were determined after protein precipitation with acetonitrile/ammonium acetate using an internal standard, followed by separation using HPLC/mass spectrometry.
Total RNA was extracted from shock-frozen cell or tissue samples using the TRIzol method. Integrity of obtained RNA was checked on a Bioanalyzer (Agilent Technologies). For reverse transcription, 1 µg of total RNA was digested with RNase-free DNase I (Gibco) for 15 min at room temperature, and then reverse-transcribed using Promiscript (Promega GmbH) in a total reaction volume of 40 µl according to the standard protocol of the supplier. After inactivation of the enzyme by heating to 65°C for 15 min, the obtained cDNA was diluted to a final volume of 150 µl with double-distilled water, and 4 µl used per PCR reaction. qRT-PCR, including normalization of raw data to cytosolic β-actin, was carried out as described previously. The resulting expression is given in arbitrary units.

[3] = tested on: male Wistar rats; assay: Single oral dose: plasma EPO and reticulocytes in healthy rats; assay type: in vivo, rat
Protocol: Male Wistar rats (240–340 g in body weight) were housed with five animals per cage for at least 1 week before experimentation. Blood samples from rats were collected under anesthesia (2% isoflurane in air) by puncturing the retro-orbital vein plexus with a glass capillary. […] The number of reticulocytes in 5 µl blood was counted after staining with thiazol orange (Becton Dickinson) according to the manufacturer’s instructions by FACS analysis on a BD FACSCalibur system (Becton Dickinson). […] The time-course of induction of EPO mRNA expression and plasma EPO was determined at baseline and 0.5 h, 1 h, 2 h, 4 h, 6 h, and 8 h after oral administration of a single dose of BAY 85-3934 (5 mg/kg). EPO was measured in plasma samples taken from rodents using a commercial ELISA kit (R&D Systems), according to the manufacturer’s instructions. Relative plasma EPO levels were given in picograms per milliliter. […] Experiments were conducted in male Wistar rats to assess the threshold doses for EPO induction and the erythropoietic activity of BAY 85-3934.

[4] = tested on: rats and cynomolgus monkeys; assay: Adverse events in all animal experiments reported; assay type: in vivo; conditions: all of the experiments reported
Protocol: All procedures conformed to national legislation (dt. Tierschutzgesetz v. 18.05.2006) and EU directives (86/609) for the use of animals for scientific purposes and were approved by the institutional animal care office of Bayer AG and by the competent regional authority (LANUV Recklinghausen). All surgical procedures were performed under deep anesthesia (2% isoflurane) with immediate post-operative analgesia (ketamine/carprofen), and all efforts were made to minimize suffering. Rats were sacrificed by exposure to 10% isoflurane and consecutive cervical dislocation. Standard laboratory diet and tap water were available ad libitum. Rats were provided with wood sticks for chewing and gnawing, and monkeys were provided with appropriate toys such as balls and climbing bars. Animals were housed in temperature- and humidity-controlled cages with a 12 h light/dark cycle. In each experiment, the number of animals used was minimized. Animals were either randomly assigned to experimental groups or, if appropriate, were assigned based on hematocrit levels.

[5] = tested on: male Wistar rats; assay: Subtotal nephrectomy (remnant kidney) model; assay type: in vivo, rat; conditions: same dose for 3 days, data not shown

Structure (SMILES): O=c1c(-n2ccnn2)c[nH]n1-c1cc(N2CCOCC2)ncn1 [BAY 85-3934, 2-[6-(morpholin-4-yl)pyrimidin-4-yl]-4-(1H-1,2,3-triazol-1-yl)-1,2-dihydro-3H-pyrazol-3-one]
- induction threshold of detectable HIF ([1]; A549 cells): 2.5 µM
- induction threshold of detectable HIF ([1]; HeLa cells): 0.25 µM
- induction threshold of detectable HIF ([1]; Hep3B cells): 0.5 µM
- induction threshold of HIF (summary in discussion) ([1]; human cell lines): below 1 µM
- time of maximum EPO plasma concentration ([2]; 5 mg/kg oral, single dose): 6 h
- time of peak kidney EPO mRNA expression ([2]; 5 mg/kg oral, single dose): 2 h
- kidney mRNA induction of the other genes examined (moderate or absent) ([2]; 5 mg/kg single dose): less than 2 fold
- time of peak mRNA levels of HMOX-1, IGFBP-1, adrenomedullin, ANGPTL-4 ([2]; 5 mg/kg single dose, kidney): 2 h
- kidney ANGPTL-4 mRNA induction factor ([2]; 5 mg/kg single dose, p<0.01): 3.8 fold
- kidney HMOX-1 mRNA induction factor ([2]; 5 mg/kg single dose, p<0.01): 3.2 fold
- kidney adrenomedullin mRNA induction factor ([2]; 5 mg/kg single dose, p<0.01): 2.3 fold
- kidney insulin-like growth factor binding protein-1 mRNA induction factor ([2]; 5 mg/kg single dose, p<0.01): 2.2 fold
- kidney EPO mRNA induction over baseline ([2]; 5 mg/kg single dose, peak at 2 h): about 50 fold
- time for which maximal plasma EPO concentrations were maintained ([3]; doses of 500 mg/kg and above): over 48 h
- doses giving maximal EPO induction ([3]; single oral administration, data not shown): ≥ 500 mg/kg
- doses giving statistically significant EPO induction ([3]; single oral administration, plasma EPO at 4 h): ≥ 1.25 mg/kg
- doses giving a dose-dependent increase in the proportion of reticulocytes ([3]; single oral dose, 72 h): ≥ 1.25 mg/kg
- adverse events related to treatment [4]: no significant adverse events
- blood pressure in normotensive rats [5]: did not affect blood pressure
